# Assay results taken from publication PMC11876601 (Molecular Systems Biology, 2025).
# Several values for one entry are separate records, joined by “and”; a condition that tells them apart may be missing. Equal values may be shown once. Read-outs that look alike come from different tables or passages of the source.
# System: AsPC-1 cells
# Test: Cell proliferation assay, chemodrug + ATR inhibitor (Incucyte confluence, 72 h);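 further: underlying read-out for every value is AsPC-1 confluence after 72 h incubation at 37 °C and 5% CO2, divided by that well's starting confluence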
# Settings: for Curve bottom / Curve top: fitted curve, relative response; for Curve slope: fitted dose-response curve; for EC50: Homo sapiens
# [1] = AsPC1, Experiment GEM alone in the Berzosertib series
# [2] = AsPC1, Experiment GEM alone in the Ceralasertib series
# [3] = AsPC1, Experiment GEM alone in the Elimusertib series
# [4] = AsPC1, Experiment GEM alone in the Gartisertib series
# Experimental: Cells were seeded at 5000 cells/well into 96-well flat bottom plates (Eppendorf) and allowed to attach overnight. […] Cells were incubated for 72 h at 37 °C and 5% CO2. Cell confluence readouts at 72 h were either normalized to their initial confluence using the Incucyte software (AsPC-1) or used without prior normalization (all others). […] Each experiment was performed in triplicates, the data was plotted as mean ± standard deviation (s.d.).
smiles,measurement,setting,value
"Nc1ccn([C@@H]2O[C@H](CO)[C@@H](O)C2(F)F)c(=O)n1 [GEM, Gemcitabine]",Curve bottom,[1],1.01 and 1.02
same,Curve top,[1],0.52 and 0.50
same,Curve bottom,[2],0.98 and 0.99
same,Curve top,[2],0.56 and 0.44 and 0.46
same,Curve bottom,[3],1.00 and 0.96 and 1.04
same,Curve top,[3],0.42 and 0.43 and 0.44
same,Curve slope,[3],1.10 and 1.63 and 1.11
same,Curve bottom,[4],0.99 and 0.98 and 1.02
same,Curve top,[4],0.53 and 0.46 and 0.43
same,Curve slope,[4],0.94 and 1.48 and 1.05
same,Raw data (confluence at 72 h/confluence at 0 h),"Berzosertib experiment, replicate R3, titrated drug dose 1 nM",3.42
same,Raw data (confluence at 72 h/confluence at 0 h),"Berzosertib experiment, replicate R3, titrated drug dose 3 nM",3.51
same,Raw data (confluence at 72 h/confluence at 0 h),"Berzosertib experiment, replicate R3, titrated drug dose 10 nM",3.46
same,Raw data (confluence at 72 h/confluence at 0 h),"Berzosertib experiment, replicate R3, titrated drug dose 30 nM",3.01
same,Raw data (confluence at 72 h/confluence at 0 h),"Berzosertib experiment, replicate R3, titrated drug dose 100 nM",2.04
same,Raw data (confluence at 72 h/confluence at 0 h),"Berzosertib experiment, replicate R1, titrated drug dose 1 nM",3.13
same,Raw data (confluence at 72 h/confluence at 0 h),"Berzosertib experiment, replicate R1, titrated drug dose 3 nM",3.29
same,Raw data (confluence at 72 h/confluence at 0 h),"Berzosertib experiment, replicate R1, titrated drug dose 10 nM",2.93
same,Raw data (confluence at 72 h/confluence at 0 h),"Berzosertib experiment, replicate R1, titrated drug dose 30 nM",2.52
same,Raw data (confluence at 72 h/confluence at 0 h),"Berzosertib experiment, replicate R1, titrated drug dose 100 nM",2.11
same,Raw data (confluence at 72 h/confluence at 0 h),"Berzosertib experiment, replicate R1, titrated drug dose 300 nM",1.92
same,Raw data (confluence at 72 h/confluence at 0 h),"Berzosertib experiment, replicate R2, titrated drug dose 1 nM",3.67
same,Raw data (confluence at 72 h/confluence at 0 h),"Berzosertib experiment, replicate R2, titrated drug dose 3 nM",3.44
same,Raw data (confluence at 72 h/confluence at 0 h),"Berzosertib experiment, replicate R2, titrated drug dose 10 nM",3.56
same,Raw data (confluence at 72 h/confluence at 0 h),"Berzosertib experiment, replicate R2, titrated drug dose 30 nM",3.03
same,Raw data (confluence at 72 h/confluence at 0 h),"Ceralasertib experiment, replicate R1, titrated drug dose 1 nM",2.79
same,Raw data (confluence at 72 h/confluence at 0 h),"Ceralasertib experiment, replicate R1, titrated drug dose 3 nM",3.19
same,Raw data (confluence at 72 h/confluence at 0 h),"Ceralasertib experiment, replicate R1, titrated drug dose 10 nM",2.64
same,Raw data (confluence at 72 h/confluence at 0 h),"Ceralasertib experiment, replicate R1, titrated drug dose 30 nM",2.39
same,Raw data (confluence at 72 h/confluence at 0 h),"Ceralasertib experiment, replicate R1, titrated drug dose 100 nM",2.12
same,Raw data (confluence at 72 h/confluence at 0 h),"Ceralasertib experiment, replicate R2, titrated drug dose 1 nM",3.88
same,Raw data (confluence at 72 h/confluence at 0 h),"Ceralasertib experiment, replicate R2, titrated drug dose 3 nM",3.93
same,Raw data (confluence at 72 h/confluence at 0 h),"Ceralasertib experiment, replicate R2, titrated drug dose 10 nM",3.66
same,Raw data (confluence at 72 h/confluence at 0 h),"Ceralasertib experiment, replicate R2, titrated drug dose 30 nM",3.19
same,Raw data (confluence at 72 h/confluence at 0 h),"Ceralasertib experiment, replicate R2, titrated drug dose 100 nM",2.36
same,Raw data (confluence at 72 h/confluence at 0 h),"Ceralasertib experiment, replicate R2, titrated drug dose 300 nM",1.88
same,Raw data (confluence at 72 h/confluence at 0 h),"Ceralasertib experiment, replicate R3, titrated drug dose 1 nM",3.42
same,Raw data (confluence at 72 h/confluence at 0 h),"Ceralasertib experiment, replicate R3, titrated drug dose 3 nM",3.64
same,Raw data (confluence at 72 h/confluence at 0 h),"Experiment (ATRi) Elimusertib, replicate R1, drug dose (titrated) 1 nM",3.45
same,Raw data (confluence at 72 h/confluence at 0 h),"Experiment (ATRi) Elimusertib, replicate R1, drug dose (titrated) 3 nM",3.34
same,Raw data (confluence at 72 h/confluence at 0 h),"Experiment (ATRi) Elimusertib, replicate R1, drug dose (titrated) 10 nM",3.17
same,Raw data (confluence at 72 h/confluence at 0 h),"Experiment (ATRi) Elimusertib, replicate R1, drug dose (titrated) 30 nM",2.54
same,Raw data (confluence at 72 h/confluence at 0 h),"Experiment (ATRi) Elimusertib, replicate R1, drug dose (titrated) 100 nM",1.97
same,Raw data (confluence at 72 h/confluence at 0 h),"Experiment (ATRi) Elimusertib, replicate R1, drug dose (titrated) 1000 nM",1.56
same,Raw data (confluence at 72 h/confluence at 0 h),"Experiment (ATRi) Elimusertib, replicate R1, drug dose (titrated) 3000 nM",1.44
same,Raw data (confluence at 72 h/confluence at 0 h),"Experiment (ATRi) Elimusertib, replicate R2, drug dose (titrated) 1 nM",3.86
same,Raw data (confluence at 72 h/confluence at 0 h),"Experiment (ATRi) Elimusertib, replicate R2, drug dose (titrated) 3 nM",3.95
same,Raw data (confluence at 72 h/confluence at 0 h),"Experiment (ATRi) Elimusertib, replicate R2, drug dose (titrated) 10 nM",3.59
same,Raw data (confluence at 72 h/confluence at 0 h),"Experiment (ATRi) Elimusertib, replicate R2, drug dose (titrated) 30 nM",3.07
same,Raw data (confluence at 72 h/confluence at 0 h),"Experiment (ATRi) Elimusertib, replicate R2, drug dose (titrated) 100 nM",2.33
same,Raw data (confluence at 72 h/confluence at 0 h),"Experiment (ATRi) Elimusertib, replicate R3, drug dose (titrated) 1 nM",3.76
same,Raw data (confluence at 72 h/confluence at 0 h),"Experiment (ATRi) Elimusertib, replicate R3, drug dose (titrated) 3 nM",3.85
same,Raw data (confluence at 72 h/confluence at 0 h),"Experiment (ATRi) Elimusertib, replicate R3, drug dose (titrated) 10 nM",3.75
same,Raw data (confluence at 72 h/confluence at 0 h),"Experiment (ATRi) Elimusertib, replicate R3, drug dose (titrated) 30 nM",3.15
same,Raw data (confluence at 72 h/confluence at 0 h),"Experiment (ATRi) Elimusertib, replicate R3, drug dose (titrated) 100 nM",2.28
same,Raw data (confluence at 72 h/confluence at 0 h),"Experiment (ATRi) Gartisertib, replicate R1, drug dose (titrated) 1 nM",3.28
same,Raw data (confluence at 72 h/confluence at 0 h),"Experiment (ATRi) Gartisertib, replicate R1, drug dose (titrated) 3 nM",3.04
same,Raw data (confluence at 72 h/confluence at 0 h),"Experiment (ATRi) Gartisertib, replicate R1, drug dose (titrated) 10 nM",2.71
same,Raw data (confluence at 72 h/confluence at 0 h),"Experiment (ATRi) Gartisertib, replicate R1, drug dose (titrated) 30 nM",2.57
same,Raw data (confluence at 72 h/confluence at 0 h),"Experiment (ATRi) Gartisertib, replicate R1, drug dose (titrated) 100 nM",2.04
same,Raw data (confluence at 72 h/confluence at 0 h),"Experiment (ATRi) Gartisertib, replicate R1, drug dose (titrated) 300 nM",1.92
same,Raw data (confluence at 72 h/confluence at 0 h),"Gartisertib experiment, replicate R2, titrated drug dose 1 nM",4.01
same,Raw data (confluence at 72 h/confluence at 0 h),"Gartisertib experiment, replicate R2, titrated drug dose 3 nM",4.05
same,Raw data (confluence at 72 h/confluence at 0 h),"Gartisertib experiment, replicate R2, titrated drug dose 10 nM",3.93
same,Raw data (confluence at 72 h/confluence at 0 h),"Gartisertib experiment, replicate R2, titrated drug dose 30 nM",3.32
same,Raw data (confluence at 72 h/confluence at 0 h),"Gartisertib experiment, replicate R2, titrated drug dose 100 nM",2.49
same,Raw data (confluence at 72 h/confluence at 0 h),"Gartisertib experiment, replicate R2, titrated drug dose 300 nM",2.07
same,Raw data (confluence at 72 h/confluence at 0 h),"Gartisertib experiment, replicate R2, titrated drug dose 1000 nM",1.91
same,Raw data (confluence at 72 h/confluence at 0 h),"Gartisertib experiment, replicate R2, titrated drug dose 3000 nM",1.89
same,Raw data (confluence at 72 h/confluence at 0 h),"Gartisertib experiment, replicate R3, titrated drug dose 1 nM",4.16
same,Raw data (confluence at 72 h/confluence at 0 h),"Gartisertib experiment, replicate R3, titrated drug dose 3 nM",3.98
same,Raw data (confluence at 72 h/confluence at 0 h),"Gartisertib experiment, replicate R3, titrated drug dose 10 nM",3.74
same,Raw data (confluence at 72 h/confluence at 0 h),"Gartisertib experiment, replicate R3, titrated drug dose 30 nM",3.24
same,Raw data (confluence at 72 h/confluence at 0 h),"Gartisertib experiment, replicate R3, titrated drug dose 100 nM",2.56
same,Raw data (confluence at 72 h/confluence at 0 h),"Gartisertib experiment, replicate R3, titrated drug dose 300 nM",2.02
same,EC50,"ASPC1, 72 h, AsPC1, Experiment GEM (Gemcitabine alone) in the Berzosertib series, single replicates R1-R3",34.6 nM
same,EC50,"ASPC1, 72 h, AsPC1, Experiment GEM (Gemcitabine alone) in the Ceralasertib series, single replicates R1-R3",42.6 nM
same,EC50,"ASPC1, 72 h, AsPC1, Experiment GEM (Gemcitabine alone) in the Elimusertib series, single replicates R1-R3",42.4 nM
same,EC50,"ASPC1, 72 h, AsPC1, Experiment GEM (Gemcitabine alone) in the Gartisertib series, single replicates R1-R3",34.1 nM
same,EC50,"ASPC1, 72 h, read-out: EC50 (cell growth), GEM alone, mean of four experiments",45 nM
same,EC50,"ASPC1, 72 h, read-out: EC50 mean [nM], AsPC1, Experiment GEM alone in the Berzosertib series, mean of replicates",40.5 nM
same,EC50,"ASPC1, 72 h, read-out: EC50 mean [nM], AsPC1, Experiment GEM alone in the Ceralasertib series, mean of replicates",45.5 nM
same,EC50,"ASPC1, 72 h, read-out: EC50 mean [nM], AsPC1, Experiment GEM alone in the Elimusertib series, mean of replicates",44.4 nM
same,EC50,"ASPC1, 72 h, read-out: EC50 mean [nM], AsPC1, Experiment GEM alone in the Gartisertib series, mean of replicates",46 nM
same,EC50,"ASPC1, 72 h, read-out: pEC50, AsPC1 (converted), Experiment GEM (Gemcitabine alone) in the Berzosertib series, single replicates R1-R3",34.7 nM
same,EC50,"ASPC1, 72 h, read-out: pEC50, AsPC1 (converted), Experiment GEM (Gemcitabine alone) in the Ceralasertib series, single replicates R1-R3",42.7 nM
same,EC50,"ASPC1, 72 h, read-out: pEC50, AsPC1 (converted), Experiment GEM (Gemcitabine alone) in the Elimusertib series, single replicates R1-R3",42.7 nM
same,EC50,"ASPC1, 72 h, read-out: pEC50, AsPC1 (converted), Experiment GEM (Gemcitabine alone) in the Gartisertib series, single replicates R1-R3",33.9 nM
same,EC50,"ASPC1, read-out: EC50 mean [nM], AsPC1, Experiment GEM alone in the Berzosertib series, mean of replicates",40.5 nM
same,EC50,"ASPC1, read-out: EC50 mean [nM], AsPC1, Experiment GEM alone in the Ceralasertib series, mean of replicates",45.5 nM
same,EC50,"ASPC1, read-out: EC50 mean [nM], AsPC1, Experiment GEM alone in the Elimusertib series, mean of replicates",44.4 nM
same,EC50,"ASPC1, read-out: EC50 mean [nM], AsPC1, Experiment GEM alone in the Gartisertib series, mean of replicates",46 nM
same,EC50,"ASPC1, read-out: EC50 mean, GEM alone, Berzosertib experiment",40.5 nM
same,EC50,"ASPC1, read-out: EC50 mean, GEM alone, Ceralasertib experiment",45.5 nM
same,EC50,"ASPC1, read-out: EC50 mean, GEM alone, Elimusertib experiment",44.4 nM
same,EC50,"ASPC1, read-out: EC50 mean, GEM alone, Gartisertib experiment",46 nM
same,Raw data (confluence at 72 h/confluence at 0 h),"titrated drug dose 10 nM, replicate R3, experiment (ATRi) Ceralasertib, AsPC-1, 72 h",3.37
same,Raw data (confluence at 72 h/confluence at 0 h),"titrated drug dose 30 nM, replicate R3, experiment (ATRi) Ceralasertib, AsPC-1, 72 h",2.93
same,Raw data (confluence at 72 h/confluence at 0 h),"titrated drug dose 1000 nM, replicate R3, experiment (ATRi) Ceralasertib, AsPC-1, 72 h",1.56
